Assay results taken from patent publication US10399932B2, “Inhibitors of indoleamine-2,3-dioxygenase for the treatment of cancer” (BRISTOL-MYERS SQUIBB COMPANY, priority 2015, dated 2019).

Molecular target: human IDO1 (Homo sapiens, UniProt P14902)
Assay: Assessment of human IDO-1 inhibitory activity in HEK cells (human IDO1/HEK293 cells, Ehrlich reagent, absorbance at 490 nm)
Type: cell-based
Parameters: expressed in transfected cells
Details: In Vitro Potency in the HEK Human IDO-1 Cellular Assay
Experimental: Exemplary compounds were tested for inhibition of IDO activity.
HEK293 cells were transfected with a pCDNA-based mammalian expression vector harboring human IDO1 cDNA (NM 002164.2) by electroporation. They were cultured in medium (DMEM with 10% FBS) containing 1 mg/ml G418 for two weeks. Clones of HEK293 cells that stably expressed human IDO1 protein were selected and expanded for IDO inhibition assay.
The human IDO1/HEK293 cells were seeded at 10,000 cells per 50 μL per well with RPMI/phenol red free media contains 10% FBS in a 384-well black wall clear bottom tissue culture plate (Matrix Technologies LLC) 100 nL of certain concentration of compound was then added to each well using ECHO liquid handling systems. The cells were incubated for 20 hours in 37° C. incubator with 5% CO2.
The compound treatments were stopped by adding trichloroacetic acid (Sigma-Aldrich) to a final concentration at 0.2%. The cell plate was further incubated at 50° C. for 30 minute. The equal volume supernatant (20 μL) and 0.2% (w/v) Ehrlich reagent (4-dimethylaminobenzaldehyde, Sigma-Aldrich) in glacial acetic acid were mixed in a new clear bottom 384-well plate. This plate was then incubated at room temperature for 30 minute. The absorbance at 490 nm was measured on Envision plate reader.
Compound IC50 values were calculated using the counts of 500 nM of a reference standard treatment as one hundred percent inhibition, and counts of no compound but DMSO treatment as zero percent inhibition.

human IDO1, sequence (P14902 whole entry): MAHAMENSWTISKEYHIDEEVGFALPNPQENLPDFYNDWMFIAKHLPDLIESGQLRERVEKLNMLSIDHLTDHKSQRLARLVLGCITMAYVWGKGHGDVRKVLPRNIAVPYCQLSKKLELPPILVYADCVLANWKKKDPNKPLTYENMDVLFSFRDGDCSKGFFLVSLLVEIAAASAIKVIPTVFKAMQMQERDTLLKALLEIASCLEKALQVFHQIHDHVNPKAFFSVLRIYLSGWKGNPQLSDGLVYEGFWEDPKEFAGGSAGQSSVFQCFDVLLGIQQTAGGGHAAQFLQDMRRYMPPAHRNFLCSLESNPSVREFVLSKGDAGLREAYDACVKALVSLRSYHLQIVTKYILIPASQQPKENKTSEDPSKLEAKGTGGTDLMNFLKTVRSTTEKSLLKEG

IC50 [µM]	Compound
< 0.005	Cc1ccc(CC(=O)Nc2cc(C(CC(=O)O)C3CC3)ccc2N(CC(C)C)C2CCCCC2)cc1 (single isomer, unassigned) [Example 1249, 3-(4-(Cyclohexyl(isobutyl)amino)-3-(2-(p-tolyl)acetamido)phenyl)-3-cyclopropylpropanoic acid]
> 0.05	CCc1ccc(Nc2cc(C(CC)CC(=O)O)ccc2N2CCC[C@H]2C(C)(C)O)cc1 (single isomer, unassigned) [Example 835]
< 0.005	CCC(CC(=O)O)c1cc(F)c(N(CC(C)C)CC(C)C)c(Nc2ccc(C#N)cc2)c1 (single isomer, unassigned) [Example 123, 3-(3-((4-cyanophenyl)amino)-4-(diisobutylamino)-5-fluorophenyl)pentanoic acid]
> 0.05	CC(CC(=O)O)c1ccc(N(CC(C)(C)O)C2CCCCC2)c(Nc2ccc(Cl)c(OCC(F)(F)F)c2)c1 (single isomer, unassigned) [Example 55, 3-(3-((4-chloro-3-(2,2,2-trifluoroethoxy)phenyl)amino)-4-(cyclohexyl(2-hydroxy-2-methylpropyl)amino)phenyl) butanoic acid]
< 0.005	CCC(CC(=O)O)c1cc(NC(=O)Nc2ccc(C)cc2F)c(N(CC(C)C)C2CCCCC2)cc1F (single isomer, unassigned) [Example 1121, 3-(4-(Cyclohexyl(isobutyl)amino)-2-fluoro-5-(3-(2-fluoro-4-methylphenyl)ureido)phenyl)pentanoic acid]
< 0.05	CCC(CC(=O)O)c1ccc(N(CC(C)C)C2CCCCC2)c(Nc2ccc3c(c2)OCCO3)c1 (single isomer, unassigned) [Example 317, 3-(4-(cyclohexyl(isobutyl)amino)-3-((2,3-dihydrobenzo[b][1,4]dioxin-6-yl)amino)phenyl)pentanoic acid]
< 0.005	CCC(CC(=O)O)c1cc(F)c(N(CC(C)C)C2CCCCC2)c(NC(=O)Nc2ccc(C)cc2)c1 (racemic) [Example 1091]
< 0.05	CCOc1ccc(CC(=O)Nc2cc(C(COC)CC(=O)O)ccc2N(CC(C)C)C2CCCCC2)cc1 (single isomer, unassigned) [Example 1242, 3-(4-(Cyclohexyl(isobutyl)amino)-3-(2-(4-ethoxyphenyl)acetamido)phenyl)-4-methoxybutanoic acid]
< 0.05	COCC(CC(=O)O)c1ccc(N(CC(C)C)CC(C)C)c(NC(=O)Nc2ccc(C)cc2)c1 (single isomer, unassigned) [Example 993-2]
> 0.05	CCC(CC(=O)O)c1cc(F)c(N(CC(C)C)CC(C)C)c(NC(=O)c2ccc(Cl)cc2)c1 (single isomer, unassigned) [Example 128, 3-(3-(4-Chlorobenzamido)-4-(diisobutylamino)-5-fluorophenyl)pentanoic acid]
< 0.05	COCC(CC(=O)O)c1ccc(N(CC(C)C)C2CCCCC2)c(NC(=O)Nc2cc(C)on2)c1 (single isomer, unassigned) [Example 987-2]
< 0.005	CCC(CC(=O)O)c1ccc(N(CC2CC2)C(C)C)c(Nc2ccc(Cl)cc2)c1 (single isomer, unassigned) [Example 717, 3-(3-((4-chlorophenyl)amino)-4-((cyclopropylmethyl)(isopropyl)amino)phenyl)pentanoic acid]
> 0.05	CC(C)CN(c1ccc(C(C)CC(=O)O)cc1NC(=O)Nc1cncnc1)C1CCOCC1 (single isomer, unassigned) [Example 964, 3-(4-(isobutyl(tetrahydro-2H-pyran-4-yl)amino)-3-(3-(pyrimidin-5-yl)ureido)phenyl) butanoic acid]
< 0.05	3-(4-((1,1-dioxidotetrahydro-2H-thiopyran-4-yl)(ethyl)amino)-3-((4-fluorophenyl)amino)phenyl)-4-isopropoxybutanoic acid [Example 300]
> 0.05	CC(CC(=O)O)c1ccc(N2CCC[C@H]2C(C)(C)O)c(Nc2ccc(C#N)cc2)c1 (single isomer, unassigned) [Example 802]
< 0.005	COCC(CC(=O)O)c1ccc(N(CC(C)C)C2CCCCC2)c(NC(=O)Nc2ccc(Cl)cc2F)c1 (single isomer, unassigned) [Example 985-2]
< 0.005	CCC(CC(=O)O)c1cc(NC(=O)Nc2cnc(C)nc2)c(N(CC(C)C)C2CCCCC2)cc1F (single isomer, unassigned) [Example 1127, 3-(4-(Cyclohexyl(isobutyl)amino)-2-fluoro-5-(3-(2-methylpyrimidin-5-yl)ureido)phenyl)pentanoic acid]

IC50 [µM]	Compound
< 0.05	COCC(CC(=O)O)c1cc(F)c(N(CC(C)C)CC(C)C)c(NC(=O)Nc2cc(C)on2)c1 (single isomer, unassigned) [Example 1188, 3-(4-(Diisobutylamino)-3-fluoro-5-(3-(5-methylisoxazol-3-yl)ureido)phenyl)-4-methoxybutanoic acid]
< 0.005	CCOc1ncc(Nc2cc(C(CC)CC(=O)O)ccc2N(CC(C)C)C2CCCCC2)cn1 (single isomer, unassigned) [Example 303, 3-(4-(cyclohexyl(isobutyl)amino)-3-((2-ethoxypyrimidin-5-yl)amino)phenyl)pentanoic acid]
< 0.05	Cc1cc(NC(=O)Nc2cc(C(CC(=O)O)C3CC3)ccc2N(CC(C)C)C2CCOCC2)no1 (single isomer, unassigned) [Example 1201 Enantiomer 2, 3-Cyclopropyl-3-(4-(isobutyl(tetrahydro-2H-pyran-4-yl)amino)-3-(3-(5-methylisoxazol-3-yl)ureido)phenyl)propanoic acid]
< 0.005	CCOc1ncc(Nc2cc(C(CC)CC(=O)O)ccc2N(CC2CC2)C2CCOCC2)cn1 (single isomer, unassigned) [Example 711, 3-(4-((cyclopropylmethyl)(tetrahydro-2H-pyran-4-yl)amino)-3-((2-ethoxypyrimidin-5-yl)amino)phenyl)pentanoic acid]
< 0.005	CCC(CC(=O)O)c1ccc(N(CC2CC2)C2CCOCC2)c(Nc2ccc(C#N)cc2)c1 (single isomer, unassigned) [Example 712, 3-(3-((4-cyanophenyl)amino)-4-((cyclopropylmethyl)(tetrahydro-2H-pyran-4-yl)amino)phenyl)pentanoic acid]
< 0.005	COCC(CC(=O)O)c1ccc(N(CC(C)C)C2CCC(OC)CC2)c(NC(=O)Nc2ccc(Cl)cc2F)c1 (racemic) [Example 1006, (+/−)-3-(3-(3-(4-Chloro-2-fluorophenyl)ureido)-4-(isobutyl((1r,4r)-4-methoxycyclohexyl)amino)phenyl)-4-methoxybutanoic acid]
< 0.05	CCOc1cc(Nc2cc(C(CC)CC(=O)O)ccc2N(CC(C)C)C2CCCCC2)ccc1Cl (single isomer, unassigned) [Example 653, 3-(3-((4-chloro-3-ethoxyphenyl)amino)-4-(cyclohexyl(isobutyl)amino)phenyl)pentanoic acid]
< 0.05	CCC(CC(=O)O)c1ccc(N(CC2CC2)C2CCOCC2)c(Nc2ccc3nc(C)sc3c2)c1 (single isomer, unassigned) [Example 707, 3-(4-((Cyclopropylmethyl)(tetrahydro-2H-pyran-4-yl)amino)-3-((2-methylbenzo[d]thiazol-6-yl)amino)phenyl)pentanoic acid]
> 0.05	CCC(CC(=O)O)c1ccc(N2CCC[C@H]2C(C)(C)O)c(Nc2ccnc(N3CCOCC3)n2)c1 (single isomer, unassigned) [Example 832]
> 0.05	CCC(CC(=O)O)c1ccc(N2CCC[C@@H]2C(C)(C)O)c(NC(=O)Nc2ccc(OC)cc2)c1 (single isomer, unassigned) [Example 777]
< 0.005	CCC(CC(=O)O)c1ccc(N(CC(C)C)CC(C)C)c(NC(=O)Cc2ccc(C#N)cc2)c1 (single isomer, unassigned) [Example 1105, 3-(3-(2-(4-Cyanophenyl)acetamido)-4-(diisobutylamino)phenyl)pentanoic acid]
< 0.05	CCN(c1ccc(C(CC(=O)O)c2ccccc2)cc1Nc1ccc(OC(F)F)cc1)C1CCOCC1 (single isomer, unassigned) [Example 593, 3-(3-((4-(difluoromethoxy)phenyl)amino)-4-(ethyl(tetrahydro-2H-pyran-4-yl)amino)phenyl)-3-phenylpropanoic acid]
> 0.05	CCC(CC(=O)O)c1ccc(N2CCC[C@@H]2C(C)(C)O)c(NC(=O)Nc2ccc(F)cc2)c1 (single isomer, unassigned) [Example 775]
< 0.05	CCOc1ccc(Nc2cc(C(CC)CC(=O)O)cc(F)c2N(CC(C)C)CC(C)C)cc1 (single isomer, unassigned) [Example 113, 3-(4-(diisobutylamino)-3-((4-ethoxyphenyl)amino)-5-fluorophenyl)pentanoic acid]
< 0.005	COCC(CC(=O)O)c1ccc(N(CC(C)C)CC(C)C)c(NC(=O)Nc2ccc(Cl)cc2F)c1 (single isomer, unassigned) [Example 995-2]
< 0.005	CCC(CC(=O)O)c1cc(NC(=O)Nc2ccc(C)cc2)c(N(CC(C)C)C2CCCCC2)cc1F (single isomer, unassigned) [Example 1107, 3-(4-(Cyclohexyl(isobutyl)amino)-2-fluoro-5-(3-(p-tolyl)ureido)phenyl)pentanoic acid]
